What is called AC50 is the concentration at which the activity in the assay is half-maximal. A word on the IC50: it is the concentration at which inhibition is half-maximal. What is called GI50 is the concentration giving 50% growth inhibition.

What all share (type): cell-based
Assay [1] deals with MYB mRNA. Briefly: Splicing RT-qPCR assay (THP), Table 2A. Conditions: Table 2A, THP; for AC50: MYB alternative junction (AJ) mRNA, read-out: MYB AJ (AC50, increase in alternative junction mRNA); for IC50: MYB canonical junction (CJ) mRNA, read-out: MYB CJ (IC50, decrease in canonical junction mRNA). In general terms: In qPCR the cycle at which signal appears reflects the starting amount.

Assay [2] concerns SH-SY5Y (human neuroblastoma) cells. The assay is described as follows: Cell viability, Cell Titer Glo 2.0 assay. Conditions: read-out: Viability SHSY5Y.3 GI50. The gist of the method:
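CellTiter-Glo 2.0 luminescence read-out after 72 h compound exposure (37 °C, 5% CO2); medium-only wells as blank. DMSO 0.1% final.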
For orientation: Cellular ATP, detected with luciferase, serves as a proxy for viable cell number.

Assay [3] has as its system MYB mRNA. Briefly: Gene panel canonical junction qPCR assay, decrease in CJ mRNA, Table 3. The following applies: decrease in CJ mRNA levels, canonical junction qPCR, gene panel. The method in brief: (§1)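 Cells: A673 or K562; 24 h compound exposure, 37 °C, 5% CO2; 11-pt 3-fold series from 10 uM final; DMSO ≤0.25%. Lysate → cDNA → qPCR with junction-spanning primers/probe for CJ transcript. ΔCt vs housekeeper, ΔΔCt vs DMSO, 2^(−ΔΔCt), % response, 4PL → IC50.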

Assay [4] has as its system HTT mRNA. The assay is described as above. The following applies: decrease in CJ mRNA levels, canonical junction qPCR, gene panel. The gist of the method: as §1
Assay [5] relates to HTT mRNA. Briefly: Splicing RT-qPCR assay (THP), Table 2A. Conditions: Table 2A, THP; for AC50: HTT alternative junction (AJ) mRNA, read-out: HTT AJ (AC50, increase in alternative junction mRNA); for IC50: HTT canonical junction (CJ) mRNA, read-out: HTT CJ (IC50, decrease in canonical junction mRNA).

Take `COc1nc2c(C(=O)Nc3cc(CNS(C)(=O)=O)c4nn(C)cc4c3)ccc(N3C[C@H](C)N[C@@H](C)C3)c2s1` [Compound 731, 7-((3S,5S)-3,5-dimethylpiperazin-1-yl)-2-methoxy-N-(2-methyl-7-(methylsulfonamidomethyl)-2H-indazol-5-yl)benzo[d]thiazole-4-carboxamide 2,2,2-trifluoroacetate]: the AC50 was 0.1 to 1 µM in assay [1] and over 10 µM in assay [5]. Further, the IC50 in assay [1] was 0.1 to 1 µM; in assay [3], 0.1 to 1 µM; in assay [4], over 10 µM; in assay [5], over 10 µM. In addition, in assay [2], the GI50 fell in the range of 1 to 10 µM.

As for `COc1nc2c(C(=O)Nc3cc(F)c4nn(C)cc4c3)ccc(N3CCN[C@@H](C(C)C)C3)c2s1` [Compound 732], the figures for the half-maximal activity concentration (AC50) in assay [1] and in assay [5] were under 0.1 µM and over 10 µM, respectively. For the same compound, the IC50 was under 0.1 µM in assay [1], under 0.1 µM in assay [3], over 10 µM in assay [4] and over 10 µM in assay [5]. Further, the GI50 in assay [2] fell in the range of 0.1 to 1 µM.

Regarding `Cc1cn2cc(NC(=O)c3ccc(N4CCC(NC5CC5)CC4)c4cn(C)nc34)nc2c(Cn2ccc(=O)[nH]c2=O)n1` [Compound 733, 4-(4-(cyclopropylamino)piperidin-1-yl)-N-(8-((2,4-dioxo-3,4-dihydropyrimidin-1(2H)-yl)methyl)-6-methylimidazo[1,2-a]pyrazin-2-yl)-2-methyl-2H-indazole-7-carboxamide 2,2,2-trifluoroacetate], the concentration at half-maximal activity (AC50) in assay [1] and in assay [5] was over 10 µM each time. Further, the IC50 in assay [1], in assay [3], in assay [4] and in assay [5] was over 10 µM throughout. For the same compound, the GI50 in assay [2] lay within 1 to 10 µM.

Regarding `Cc1cn2cc(NC(=O)c3ccc(N4CCC(NC5CC5)CC4)c4cn(C)nc34)nc2c(CN)n1` [Compound 734, N-(8-(aminomethyl)-6-methylimidazo[1,2-a]pyrazin-2-yl)-4-(4-(cyclopropylamino)piperidin-1-yl)-2-methyl-2H-indazole-7-carboxamide bis(2,2,2-trifluoroacetate)], the half-maximal activity concentration (AC50) in assay [1] and in assay [5] was over 10 µM throughout. Further, the IC50 in assay [1], in assay [3], in assay [4] and in assay [5] was over 10 µM throughout. In assay [2], the GI50 is over 10 µM.

Turning to `Cn1cc2cc(NC(=O)c3ccc(N4CCC(NC5CC5)CC4)c4cn(C)nc34)cc(CNS(C)(=O)=O)c2n1` [Compound 735, 4-(4-(cyclopropylamino)piperidin-1-yl)-2-methyl-N-(2-methyl-7-(methylsulfonamidomethyl)-2H-indazol-5-yl)-2H-indazole-7-carboxamide 2,2,2-trifluoroacetate], the AC50 in assay [1] is 1 to 10 µM; in assay [5] it was over 10 µM. In addition, the IC50 in assay [1] was 1 to 10 µM; in assay [3], 1 to 10 µM; in assay [4] it was over 10 µM; in assay [5], over 10 µM. Moreover, the GI50 in assay [2] is over 10 µM.

With `CCNC1CCN(c2ccc(C(=O)Nc3cc4cn(C)nc4cc3OC)c3nn(C)cc23)C(C)C1` (stereo not shown) [Compound 736, 4-(4-(ethylamino)-2-methylpiperidin-1-yl)-N-(6-methoxy-2-methyl-2H-indazol-5-yl)-2-methyl-2H-indazole-7-carboxamide 2,2,2-trifluoroacetate], the half-maximal activity concentration (AC50) was 1 to 10 µM in assay [1] and over 10 µM in assay [5]. Further, the concentration for half-maximal inhibition (IC50) in assay [1], in assay [3], in assay [4] and in assay [5] was over 10 µM throughout. Besides, the GI50 in assay [2] lay within 1 to 10 µM.

Consider `CCNC1CCN(c2ccc(C(=O)Nc3cc4cn(C)nc4cc3OC)c3nn(C)cc23)C(C)(C)C1` (stereo not shown) [Compound 737, 4-[4-(ethylamino)-2,2-dimethyl-1-piperidyl]-N-(6-methoxy-2-methyl-indazol-5-yl)-2-methyl-indazole-7-carboxamide], for which the AC50 in assay [1] and in assay [5] was over 10 µM each time. Also, the IC50 in assay [1], in assay [3], in assay [4] and in assay [5] was over 10 µM throughout. Moreover, the GI50 in assay [2] is 1 to 10 µM.

As to `COc1nc2c(C(=O)Nc3cc(C)c4nn(C)cc4n3)ccc(N3C[C@H](C)N[C@@H](C)C3)c2s1` [Compound 738, N-(2,7-dimethyl-2H-pyrazolo[4,3-b]pyridin-5-yl)-7-((3S,5S)-3,5-dimethylpiperazin-1-yl)-2-methoxybenzo[d]thiazole-4-carboxamide 2,2,2-trifluoroacetate], the AC50 in assay [1] was under 0.1 µM; in assay [5], over 10 µM. Besides, the IC50 in assay [1] was under 0.1 µM; in assay [3] it was under 0.1 µM; in assay [4] it was over 10 µM; in assay [5] it was over 10 µM. The 50% growth inhibitory concentration (GI50) in assay [2] is 0.1 to 1 µM.

Regarding `COc1nc2c(C(=O)Nc3cc(C)c4nc(C)cn4n3)ccc(N3C[C@H](C)N[C@@H](C)C3)c2s1` [Compound 739, N-(2,8-dimethylimidazo[1,2-b]pyridazin-6-yl)-7-[(3S,5S)-3,5-dimethylpiperazin-1-yl]-2-methoxy-1,3-benzothiazole-4-carboxamide], the values for the AC50 in assay [1] and in assay [5] were under 0.1 µM and 0.1 to 1 µM, respectively. In addition, the IC50 in assay [1] was under 0.1 µM; in assay [3], under 0.1 µM; in assay [4] it was 1 to 10 µM; in assay [5], 1 to 10 µM. Also, the GI50 in assay [2] is 0.1 to 1 µM.

For `COc1nc2c(C(=O)Nc3cccc4c3nnn4C)ccc(N3C[C@H](C)N[C@@H](C)C3)c2s1` [Compound 740, 7-[(3S,5S)-3,5-dimethylpiperazin-1-yl]-2-methoxy-N-(1-methylbenzotriazol-4-yl)-1,3-benzothiazole-4-carboxamide], the AC50 in assay [1] and in assay [5] was over 10 µM throughout. Moreover, the half-maximal inhibitory concentration (IC50) in assay [1] is over 10 µM; in assay [3] it was over 10 µM; in assay [4], 1 to 10 µM; in assay [5] it was 1 to 10 µM. Besides, the GI50 in assay [2] was 1 to 10 µM.

Turning to `COc1nc2c(C(=O)Nc3cc(F)c4nn(C)cc4c3)ccc(N3C[C@H](C)NC4(CC4)C3)c2s1` [Compound 741], the AC50 is under 0.1 µM in assay [1] and 1 to 10 µM in assay [5]. Further, the IC50 in assay [1] was under 0.1 µM; in assay [3] it was under 0.1 µM; in assay [4] it was over 10 µM; in assay [5], over 10 µM. For the same compound, the GI50 in assay [2] is under 0.1 µM.

As to `COc1nc2c(C(=O)Nc3cc(F)c4nn(C)cc4c3)ccc(N3CCN[C@@H](C(C)(C)C)C3)c2s1` [Compound 742, 7-[(3S)-3-tert-butylpiperazin-1-yl]-N-(7-fluoro-2-methyl-indazol-5-yl)-2-methoxy-1,3-benzothiazole-4-carboxamide], the half-maximal activity concentration (AC50) in assay [1] is 0.1 to 1 µM; in assay [5] it was over 10 µM. Besides, the IC50 was 0.1 to 1 µM in assay [1], 0.1 to 1 µM in assay [3], over 10 µM in assay [4] and over 10 µM in assay [5]. Moreover, the GI50 in assay [2] lay within 1 to 10 µM.

Turning to `COc1nc2c(C(=O)Nc3cc(F)c4nn(C)cc4c3)ccc(N3CCN[C@@H](CO)C3)c2s1` [Compound 743, (R)—N-(7-fluoro-2-methyl-2H-indazol-5-yl)-7-(3-(hydroxymethyl)piperazin-1-yl)-2-methoxybenzo[d]thiazole-4-carboxamide 2,2,2-trifluoroacetate], the AC50 in assay [1] and in assay [5] was under 0.1 µM each time. Further, the IC50 in assay [1], in assay [3], in assay [4] and in assay [5] was under 0.1 µM throughout. Also, the GI50 in assay [2] was under 0.1 µM.

(Values after patent US20260285853A1, “COMPOUNDS AND METHODS FOR MODULATING SPLICING” (REMIX THERAPEUTICS INC., priority 2023, published 2026).)
